The source of these data is ChEMBL document CHEMBL3751803, “Discovery of an in Vivo Tool to Establish Proof-of-Concept for MAP4K4-Based Antidiabetic Treatment” (ACS Med Chem Lett, 2015).

Structures are written as SMILES. pIC50: −log10 of the molar value. ≈ marks a conversion by molar mass, not a printed value.

The nature of data set [1]: Passive permeability in MDCK2 cell with low efflux. The note with it: dog, MDCK. Format: ADME, cell-based, Canis lupus familiaris, MDCK-II.
The target in data set [2] is Voltage-gated inwardly rectifying potassium channel KCNH2 (Homo sapiens, UniProt Q12809). The experiment in a line: Inhibition of human ERG transfected in HEK293 cells. It is filed as cell-based.
Another data set concerns the target T1, CYP2C8 (Homo sapiens, UniProt P10632).
T1 sequence (P10632 whole entry): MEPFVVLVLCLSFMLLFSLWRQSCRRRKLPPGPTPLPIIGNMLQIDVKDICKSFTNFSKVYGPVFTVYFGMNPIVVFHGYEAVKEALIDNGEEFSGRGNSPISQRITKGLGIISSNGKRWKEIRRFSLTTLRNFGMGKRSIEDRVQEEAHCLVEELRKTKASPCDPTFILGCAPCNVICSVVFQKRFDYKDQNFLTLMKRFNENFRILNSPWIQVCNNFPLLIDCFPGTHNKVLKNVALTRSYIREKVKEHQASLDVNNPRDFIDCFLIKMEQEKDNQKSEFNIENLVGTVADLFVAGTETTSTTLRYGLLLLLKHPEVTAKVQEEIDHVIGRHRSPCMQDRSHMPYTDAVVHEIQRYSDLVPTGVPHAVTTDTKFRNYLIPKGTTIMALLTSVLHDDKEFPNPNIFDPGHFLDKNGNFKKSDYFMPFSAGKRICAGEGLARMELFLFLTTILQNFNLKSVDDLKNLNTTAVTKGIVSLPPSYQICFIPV
The experiment in a line: Inhibition of CYP2C8 (unknown origin) at 3 uM. It is filed as ADME.

Data set [3] can be described thus: Fraction unbound in mouse plasma at 10 mg/kg, po. Format: ADME, organism-based.
Data set [4] deals with T2, Mitogen-activated protein kinase kinase kinase kinase 4 (Homo sapiens, UniProt O95819). The experiment in a line: Inhibition of human MAP4K4 transfected in 293 MSR cells assessed as inhibition of phosphorylation of traf2 at ser/thr residue by ELISA. It is filed as cell-based. A general note: ELISA stands for enzyme-linked immunosorbent assay.
A further data set concerns Liver microsome. The experiment in a line: Unbound intrinsic clearance in human liver microsomes. Format: ADME.
Data set [5] has as its target T2, Mitogen-activated protein kinase kinase kinase kinase 4. Nature of the data set: Inhibition of recombinant human MAP4K4 catalytic domain in presence of 10 uM ATP (Km) by FRET assay.
Data set [6] concerns Mus musculus. Nature of the data set: Inhibition of LPS-induced TNF-alpha level in C57/Bl6 mouse blood at 15 mg/kg, po administered 30 mins prior to LPS challenge measured after […]. It is filed as functional. The note with it: C57/BI6, Blood.
Another data set concerns Epithelial cell. Nature of the data set: Cytotoxicity against human liver epithelial cells.
Another data set deals with CYP2D6 (Homo sapiens, UniProt P10635). The experiment in a line: Inhibition of CYP2D6 (unknown origin) at 3 uM. Format: ADME.
For the next data set, the target named is CYP2C9 (Homo sapiens, UniProt P11712). Nature of the data set: Inhibition of CYP2C9 (unknown origin) at 3 uM. It is filed as ADME.
Data set [7] deals with TRAF2 and NCK-interacting protein kinase (Homo sapiens, UniProt Q9UKE5). Nature of the data set: Inhibition of TNIK (unknown origin) in presence of ATP (Km).
A short description of data set [8]: Solubility of compound at pH 1.2. It is filed as physicochemical. As to conditions: buffer.
Data set [9] has as its target T3, CYP3A4 (Homo sapiens, UniProt P08684). Nature of the data set: Time dependent inhibition of CYP3A4 (unknown origin) using midazolam as substrate at 60 uM. It is filed as ADME. As to conditions: probe midazolam.
In data set [10] the target is T3, CYP3A4. Nature of the data set: Time dependent inhibition of CYP3A4 (unknown origin) using midazolam as substrate at 30 uM. Format: ADME. The note with it: probe midazolam.
Data set [11] has as its target T3, CYP3A4. The experiment in a line: Inhibition of CYP3A4 (unknown origin) at 3 uM. Format: ADME.
In another data set the test system is Salmonella typhimurium. Nature of the data set: Mutagenicity in Salmonella typhimurium by Ames test. It is filed as toxicity, organism-based. As to conditions: salmonella enterica subsp. enterica serovar typhimurium. (The Ames test uses bacterial strains that need an amino acid and regain growth without it when mutated back.)
The next data set has as its target T4, Cytochrome P450 1A2 (Homo sapiens, UniProt P05177).
T4 sequence (P05177 whole entry): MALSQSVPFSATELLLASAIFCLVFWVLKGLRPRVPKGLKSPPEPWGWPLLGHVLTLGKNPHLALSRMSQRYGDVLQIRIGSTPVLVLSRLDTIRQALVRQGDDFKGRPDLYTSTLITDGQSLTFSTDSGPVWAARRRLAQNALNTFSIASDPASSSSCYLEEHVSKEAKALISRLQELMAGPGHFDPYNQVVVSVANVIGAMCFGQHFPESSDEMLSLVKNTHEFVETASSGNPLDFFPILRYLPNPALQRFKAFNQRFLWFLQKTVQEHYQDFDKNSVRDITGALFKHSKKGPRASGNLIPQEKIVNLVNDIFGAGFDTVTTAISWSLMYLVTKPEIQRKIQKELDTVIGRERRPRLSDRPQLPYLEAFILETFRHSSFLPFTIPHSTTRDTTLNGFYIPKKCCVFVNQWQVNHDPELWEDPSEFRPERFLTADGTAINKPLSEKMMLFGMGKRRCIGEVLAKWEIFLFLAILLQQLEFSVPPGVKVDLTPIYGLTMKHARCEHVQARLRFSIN
The experiment in a line: Inhibition of CYP1A2 (unknown origin). Format: ADME.

Another data set concerns Plasma. Nature of the data set: Plasma concentration in C57/Bl6 mouse at 15 mg/kg, po. It is filed as ADME, organism-based, C57/BI6. As to conditions: in vivo.
A short description of data set [12]: Solubility of compound at pH 6.5. It is filed as physicochemical. As to conditions: buffer.
Data set [13] concerns Mus musculus. The experiment in a line: Decrease in blood glucose level in ob/ob mouse at 10 mg/kg, po bid for 4 weeks. It is filed as functional. The note with it: 672 h.
Another data set deals with Misshapen-like kinase 1 (Homo sapiens, UniProt Q8N4C8). Nature of the data set: Inhibition of MINK (unknown origin) in presence of ATP (Km).
For a further data set, the target named is T5, CYP1A2 (Homo sapiens, UniProt P05177).
T5 sequence (P05177 whole entry): T4 sequence (P05177 whole entry)
Nature of the data set: Inhibition of CYP1A2 (unknown origin) at 3 uM. Format: ADME.

The target in data set [14] is T2, Mitogen-activated protein kinase kinase kinase kinase 4. The experiment in a line: Inhibition of recombinant human MAP4K4 catalytic domain in presence of 1 mM ATP by FRET assay.
The nature of data set [15]: Lipophilicity, log D of the compound. Format: physicochemical. As to conditions: octanol/water.

T3 sequence (P08684 whole entry): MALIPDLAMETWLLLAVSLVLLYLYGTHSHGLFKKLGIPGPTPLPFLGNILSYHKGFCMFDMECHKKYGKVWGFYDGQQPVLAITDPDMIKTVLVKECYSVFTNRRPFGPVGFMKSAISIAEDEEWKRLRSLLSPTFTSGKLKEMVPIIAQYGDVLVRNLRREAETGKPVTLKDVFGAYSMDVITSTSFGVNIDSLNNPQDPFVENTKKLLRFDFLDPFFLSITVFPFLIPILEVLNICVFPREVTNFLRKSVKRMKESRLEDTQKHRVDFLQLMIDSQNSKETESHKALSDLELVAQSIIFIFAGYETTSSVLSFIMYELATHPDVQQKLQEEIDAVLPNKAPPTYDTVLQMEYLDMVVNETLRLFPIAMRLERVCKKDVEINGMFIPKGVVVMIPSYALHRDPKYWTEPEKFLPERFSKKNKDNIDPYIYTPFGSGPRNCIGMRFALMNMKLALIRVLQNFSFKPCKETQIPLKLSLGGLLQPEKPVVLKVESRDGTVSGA
T2 sequence (O95819 whole entry): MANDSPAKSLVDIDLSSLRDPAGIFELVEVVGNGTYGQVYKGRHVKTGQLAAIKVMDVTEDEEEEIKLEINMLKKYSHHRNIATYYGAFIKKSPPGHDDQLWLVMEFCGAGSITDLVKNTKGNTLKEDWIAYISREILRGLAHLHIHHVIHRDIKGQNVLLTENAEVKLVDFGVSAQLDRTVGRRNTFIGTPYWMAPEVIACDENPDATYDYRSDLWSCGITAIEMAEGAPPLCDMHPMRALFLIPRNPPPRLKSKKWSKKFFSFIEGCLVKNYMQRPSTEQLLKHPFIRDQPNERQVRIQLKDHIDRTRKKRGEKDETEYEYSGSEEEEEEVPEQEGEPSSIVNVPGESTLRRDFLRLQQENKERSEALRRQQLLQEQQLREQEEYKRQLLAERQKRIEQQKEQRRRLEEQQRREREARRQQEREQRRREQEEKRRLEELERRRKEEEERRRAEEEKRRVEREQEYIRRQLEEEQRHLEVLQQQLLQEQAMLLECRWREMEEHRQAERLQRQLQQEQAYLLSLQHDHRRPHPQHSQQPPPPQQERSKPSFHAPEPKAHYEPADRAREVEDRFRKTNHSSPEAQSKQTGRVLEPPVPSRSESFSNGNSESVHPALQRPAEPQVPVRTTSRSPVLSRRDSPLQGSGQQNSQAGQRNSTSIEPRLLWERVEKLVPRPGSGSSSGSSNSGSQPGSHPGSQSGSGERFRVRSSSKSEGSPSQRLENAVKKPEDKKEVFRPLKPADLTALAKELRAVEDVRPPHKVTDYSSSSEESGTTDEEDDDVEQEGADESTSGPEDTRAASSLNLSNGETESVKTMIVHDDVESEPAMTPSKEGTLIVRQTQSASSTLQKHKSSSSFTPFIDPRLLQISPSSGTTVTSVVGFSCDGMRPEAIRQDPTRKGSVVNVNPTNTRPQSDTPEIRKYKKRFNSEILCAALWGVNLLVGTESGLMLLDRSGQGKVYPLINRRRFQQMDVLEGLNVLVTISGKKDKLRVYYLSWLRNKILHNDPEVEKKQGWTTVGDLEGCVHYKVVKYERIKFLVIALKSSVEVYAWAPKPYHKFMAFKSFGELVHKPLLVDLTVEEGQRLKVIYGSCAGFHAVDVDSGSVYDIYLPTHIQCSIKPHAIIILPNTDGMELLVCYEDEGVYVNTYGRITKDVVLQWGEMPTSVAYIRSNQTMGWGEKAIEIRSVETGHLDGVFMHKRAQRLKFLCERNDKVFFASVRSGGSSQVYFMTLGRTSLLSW
Chain of CYP2C9 (P11712 whole entry): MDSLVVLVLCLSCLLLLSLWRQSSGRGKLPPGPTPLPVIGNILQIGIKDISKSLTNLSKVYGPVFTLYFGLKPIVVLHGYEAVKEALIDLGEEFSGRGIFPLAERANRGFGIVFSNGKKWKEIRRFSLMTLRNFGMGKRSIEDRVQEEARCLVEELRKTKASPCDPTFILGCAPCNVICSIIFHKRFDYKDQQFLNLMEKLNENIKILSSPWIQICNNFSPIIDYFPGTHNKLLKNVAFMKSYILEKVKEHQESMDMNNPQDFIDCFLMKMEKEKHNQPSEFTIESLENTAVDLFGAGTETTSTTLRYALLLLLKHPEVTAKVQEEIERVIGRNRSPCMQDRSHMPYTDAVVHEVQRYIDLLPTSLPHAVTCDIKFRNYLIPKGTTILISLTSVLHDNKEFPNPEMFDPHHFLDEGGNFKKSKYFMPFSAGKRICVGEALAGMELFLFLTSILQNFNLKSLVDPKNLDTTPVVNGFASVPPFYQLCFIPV
Chain of Voltage-gated inwardly rectifying potassium channel KCNH2 (Q12809 whole entry): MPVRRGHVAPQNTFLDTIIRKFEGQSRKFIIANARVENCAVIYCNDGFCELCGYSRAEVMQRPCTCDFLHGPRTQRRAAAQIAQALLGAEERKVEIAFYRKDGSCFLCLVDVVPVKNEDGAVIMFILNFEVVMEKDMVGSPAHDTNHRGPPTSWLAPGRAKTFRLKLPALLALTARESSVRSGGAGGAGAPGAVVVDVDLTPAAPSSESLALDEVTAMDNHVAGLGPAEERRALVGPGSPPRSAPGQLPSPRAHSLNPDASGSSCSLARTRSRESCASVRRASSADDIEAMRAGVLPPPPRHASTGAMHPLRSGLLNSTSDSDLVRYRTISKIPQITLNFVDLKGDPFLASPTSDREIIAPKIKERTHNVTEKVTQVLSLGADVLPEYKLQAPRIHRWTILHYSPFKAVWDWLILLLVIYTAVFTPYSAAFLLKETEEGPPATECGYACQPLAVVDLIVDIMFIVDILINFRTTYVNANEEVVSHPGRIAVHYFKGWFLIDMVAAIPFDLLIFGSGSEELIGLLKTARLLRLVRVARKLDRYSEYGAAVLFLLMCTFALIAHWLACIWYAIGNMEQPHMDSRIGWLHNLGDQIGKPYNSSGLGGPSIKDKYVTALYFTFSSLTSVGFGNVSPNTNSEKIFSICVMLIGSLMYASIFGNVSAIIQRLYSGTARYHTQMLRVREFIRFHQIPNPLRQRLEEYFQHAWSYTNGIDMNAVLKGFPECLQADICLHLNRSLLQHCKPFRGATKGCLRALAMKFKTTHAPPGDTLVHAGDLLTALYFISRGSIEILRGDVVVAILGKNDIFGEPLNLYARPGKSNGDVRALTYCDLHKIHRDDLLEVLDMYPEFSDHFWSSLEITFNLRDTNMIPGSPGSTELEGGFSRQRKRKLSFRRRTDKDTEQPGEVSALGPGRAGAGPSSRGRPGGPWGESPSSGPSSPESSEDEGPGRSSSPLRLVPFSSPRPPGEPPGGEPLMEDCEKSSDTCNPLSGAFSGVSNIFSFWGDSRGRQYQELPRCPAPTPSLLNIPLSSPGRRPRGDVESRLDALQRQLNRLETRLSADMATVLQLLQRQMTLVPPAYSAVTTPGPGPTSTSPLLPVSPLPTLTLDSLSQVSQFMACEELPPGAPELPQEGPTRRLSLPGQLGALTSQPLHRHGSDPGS
Chain of CYP2D6 (P10635 whole entry): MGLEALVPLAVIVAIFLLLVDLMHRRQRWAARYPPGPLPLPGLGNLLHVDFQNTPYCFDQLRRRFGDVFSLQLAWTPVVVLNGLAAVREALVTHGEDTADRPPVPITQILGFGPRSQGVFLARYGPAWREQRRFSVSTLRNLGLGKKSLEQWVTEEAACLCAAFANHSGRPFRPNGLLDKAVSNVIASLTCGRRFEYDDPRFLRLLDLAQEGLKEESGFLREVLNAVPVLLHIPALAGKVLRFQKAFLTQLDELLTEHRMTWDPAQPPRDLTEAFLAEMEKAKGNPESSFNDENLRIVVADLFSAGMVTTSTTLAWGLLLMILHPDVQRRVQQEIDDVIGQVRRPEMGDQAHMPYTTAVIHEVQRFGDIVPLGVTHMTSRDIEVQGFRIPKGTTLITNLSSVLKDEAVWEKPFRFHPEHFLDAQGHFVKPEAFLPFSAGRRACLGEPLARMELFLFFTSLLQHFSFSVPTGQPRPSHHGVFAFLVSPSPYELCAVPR

With `Nc1ncc(-c2cc[nH]c(=O)c2)cc1-c1ccc(Cl)cc1`, in [1], the Papp was 15.7 ×10⁻⁶ cm/s.
Same read-out and setting: under `NC(=O)c1ccc(-c2cc(-c3ccc(Cl)cc3)ccn2)cc1` stands 4.4 ×10⁻⁶ cm/s.
The same measure, in the same setting: under `NC(=O)c1ccc(-c2cn(-c3ccc(Cl)cc3)cn2)cc1` stands 2.9 ×10⁻⁶ cm/s.
The same measure, in the same setting: under `NC(=O)c1ccc(-c2cncc(-c3ccc(Cl)cc3)c2)cc1` stands 8.7 ×10⁻⁶ cm/s; under `CS(=O)(=O)c1ccc(-c2cc(-c3ccc(O)cc3)cnc2N)cc1`, 17.2 ×10⁻⁶ cm/s.
Regarding `Nc1ccc(-c2cnc(N)c(-c3ccc(Cl)cc3)c2)cn1`, the pIC50 in data set [2] was 5.74; in data set [4], 6.80; in data set [5], 8.43; with Epithelial cell, below 3.92; in data set [7], 7.82; against Cytochrome P450 1A2, 5.52. Besides, on Misshapen-like kinase 1, the pIC50 is 8.10. In addition, the inhibition at 3 µM against CYP2C8, against CYP2D6, on CYP2C9 and at CYP3A4 [11] was below 15% each time. In data set [3], this compound returned a fraction unbound of 0.038. In the data set on Liver microsome, the CL free stood at 89 mL/min/kg. The compound also showed an inhibition in vivo at 15 mg/kg with Mus musculus [6] above 90%. The solubility in data set [8] came to 13000 µg/mL (≈ 43.8 mM); in [12] it was 5800 µg/mL (≈ 19.5 mM). This compound also displayed an inhibition at 60 µM against CYP3A4 [9] of 61%. For the same compound, the inhibition at 30 µM on CYP3A4 [10] worked out at 54%. Moreover, the Activity result with Salmonella typhimurium is “Toxic”. In data set [1], this compound registered a Papp of 7.1 ×10⁻⁶ cm/s. In addition, in the data set with Plasma, the Cp is 439 ng/mL. In the data set on Mus musculus [13], this compound gave an inhibition in vivo at 10 mg/kg of 44%.
In data set [1], `NC(=O)c1ccc(-c2cncc(-c3ccc(OC4CC4)cc3)c2)cc1` displayed a Papp of 3.5 ×10⁻⁶ cm/s.
As for `Nc1ncc(-c2cnc(N)c(-c3ccc(Cl)cc3)c2)cn1`, the negative logarithm of the IC50 (pIC50) in data set [2] is below 5.00; in the data set with Epithelial cell, below 3.52. Besides, the inhibition at 3 µM against CYP2C8, against CYP2D6, at CYP2C9, at CYP3A4 [11] and at CYP1A2 was below 15% in each case. The CL free in the data set on Liver microsome came to 13 mL/min/kg. The solubility in data set [8] (read-out: solubility) amounted to 3960 µg/mL (≈ 13.3 mM); in [12], 2 µg/mL (≈ 0.00672 mM). The inhibition at 60 µM on CYP3A4 [9] is 24%. The compound also had an inhibition at 30 µM against CYP3A4 [10] of 8%. In addition, the Activity result in the data set with Salmonella typhimurium is given as “Non-toxic”.
For the compound `NC(=O)c1ccc(-n2cc(-c3ccc(Cl)cc3)cn2)cc1`, the pIC50 in data set [4] was below 4.52; in [5], 6.61; in data set [14], below 5.00.
Turning to `NC(=O)c1ccc(-c2ncc(-c3ccc(Cl)cc3)o2)cc1`, the results for the pIC50 in data set [4], in data set [5] and in [14] were 5.20, 7.03 and below 5.00, respectively. The logD in data set [15] came out at 3.6.
With `CS(=O)(=O)c1ccc(-c2cc(-c3ccc(C(N)=O)cc3)cnc2N)cc1`, in data set [1], the Papp turned out to be 6.7 ×10⁻⁶ cm/s.
Same read-out and setting: the result for `COc1ccc(-c2cncc(-c3ccc(C(N)=O)cc3)c2)cc1` reads 8.7 ×10⁻⁶ cm/s.
In data set [1], `Cn1c(-c2ccc(Cl)cc2)cnc1-c1ccc(C(N)=O)cc1` returned a Papp of 15.6 ×10⁻⁶ cm/s.

One may read the Papp as a coefficient for how fast a substance crosses the barrier. Low values mean poor permeation, high ones ready permeation. A word on the pIC50: it is −log10 of the IC50, conventionally taken in molar units. The inhibition is the change of the read-out against control, counted positive when it falls. A low value points to little suppression. In general, fraction unbound refers to free concentration divided by total concentration. Read a high fraction unbound as weak binding. Usually inhibition in vivo stands for the relative decrease from the control value, in per cent. Read a high inhibition in vivo as strong suppression. By solubility is commonly meant the dissolved amount per volume that the medium holds. A word on the logD: it is the decadic logarithm of the distribution of all forms, ionised or not, between an organic phase and buffer at a given pH. High values mean higher lipophilicity, low ones lower lipophilicity.
